From US6905834B1, “Bioluminescent bioreporter integrated circuit detection methods” (UT-Battelle, LLC, priority 1997, dated 2005)

What was measured:
N. europaea Km^r hao-lux = test: Bioluminescence response of N. europaea hao-lux fusion to NH4+; format: cell-based, Nitrosomonas europaea
Method: The NH4^+ detection limits were determined to be 20 μM at 30 min of exposure and 10 μM at 60 min or 90 min of exposure (threefold increase over background bioluminescence).

S. cerevisiae HER = test: Sol-gel encapsulated yeast β-galactosidase bioreporter for estrogenic activity; format: cell-based, Saccharomyces cerevisiae; conditions: over a seven day period; comparable to non-encapsulated positive control
Method: Sol-gel encapsulation studies substituting another yeast strain, S. cerevisiae HER, a β-galactosidase bioreporter for estrogenic activity were conducted. Strain HER was successfully incorporated into the sol-gel matrix while retaining responsiveness to the estrogen inducer β-estradiol.

Row | Structure (SMILES) | NH4^+ detection limit (threefold increase over background bioluminescence) (N. europaea Km^r hao-lux; 30 min of exposure) [µM] | NH4^+ detection limit (threefold increase over background bioluminescence) (N. europaea Km^r hao-lux; 60 min or 90 min of exposure) [µM] | estrogenic response of sol-gel encapsulated yeast cells (in words) (S. cerevisiae HER)
1 | N.N.O=S(=O)(O)O [NH4^+, (NH4)2SO4] | 20 | 10 | 
2 | C[C@]12CC[C@@H]3c4ccc(O)cc4CC[C@H]3[C@@H]1CC[C@@H]2O [β-estradiol] |  |  | an estrogenic response was initiated
